# Source: US7399826B1, “Peptide for promoting healing of fractures” (priority 2003, dated 2008)
# No end group written: not given here.
# Tested on: ulnar osteotomies in New Zealand rabbits
# Assay: Ulnar osteotomy fracture healing study in rabbits
# Assay type: in vivo
# Conditions: all rabbits (study and control groups); four-week study
# Description: Ulnar osteotomies were carried out in forty, three-month-old New Zealand rabbits. Half of the rabbits were placed in a study group while the other half was placed in a control group. All the rabbits were anesthetized using intramuscular ketamine 35 mg/kg body weight mixed with Xylazine 5 mg/kg body weight and an ophthalmic band with gentamycin ophthalmic ointment. A dose of prophylactic intramuscular cefuraxmine 25 mg/kg body weight was also administered. The forelimb was shaved and prepped in a sterile fashion. Through a posterior incision, the muscles were retracted and the shaft of the ulna was identified. Osteotomy was carried out equidistant between the olecranon and the wrist joint. The osteotomy was irrigated with normal saline. The wound was closed in layers and dressed with betadine and opsite spray. The animals were kept together in similar conditions. On the third post-operative day, the study group was injected with about 2.5-5 mg/kg of the peptide, synthesized as described above, in 0.25 ml of sterile water around the osteotomy site, while the control group received 0.25 ml of normal saline at the osteotomy site. Every week, five rabbits in the control group and five in the study group were sacrificed and their limbs were dissected and stored in 2% formalin. The study was carried out for four weeks. […]
sequence,measurement,value
"MIFVKTLTGKTIL [SHMSP, Met-Ile-Phe-Val-Lys-Thr-Leu-Thr-Gly-Lys-Thr-Ile-Leu]","tolerability (wound infections, deaths)",no wound infections or deaths
